Measurements from paper PMC12010006, “Subnanomolar MAS-related G protein-coupled receptor-X2/B2 antagonists with efficacy in human mast cells and disease models” (Signal Transduction and Targeted Therapy, 2025).

Key:
LAD2 cells = experiment: MTT assay, LAD2 cells; format: cell-based, human; conditions: 24 h; concentrations up to 6-fold higher than IC50 (3, 10, 30 nM)
Procedure: Fig. 6 PSB-172656 inhibits MRGPRX2-mediated mast cell degranulation. a LAD2 cells were incubated with buffer (control) or various concentrations of MRGPRX2 antagonist PSB-172656, subsequently exposed to substance P (SP, 0.3 µM), and β-hexosaminidase release was measured. […] Data are expressed as means ± SEM of 3 biological replicates. Statistical significance was determined by one-way ANOVA (Tukey’s multiple comparisons), compared to the effect of SP in the absence of PSB-172656 (P-value*** < 0.001). b Potential cytotoxicity of PSB-172656 was determined in 3-[4,5-dimethylthiazol-2-yl]-2,5-diphenyl tetrazolium bromide (MTT) assays performed on LAD2 cells. Cells were treated with different concentrations of PSB-172656 for 24 h at 37 °C, and the optic density value was determined at 570 nm (the viability of untreated cells corresponds to 100% cell viability). […] Mean fluorescence intensity (MFI) levels of e CD107a and f CD63 are depicted. […] Degranulation is characterized by the release of β-hexosaminidase, expressed as a percentage of the total content. h Human skin MCs were incubated with different concentrations of PSB-172656 for 30 min followed by stimulation with CST-14 (1 µM). Statistical significance was calculated by one-way ANOVA (Tukey’s multiple comparisons), compared to agonist without PSB-172656 (P-value* < 0.05, […], and P-value**** < 0.001) […]

MRGPRX2 [1] = target: T1, MRGPRX2 (Homo sapiens, UniProt Q96LB1); experiment: Surface expression of CD107a and CD63 (flow cytometry), LAD2 cells activated with SP; format: cell-based; conditions: 30 nM, 5 min; SP 300 nM
T1 sequence (Q96LB1 1-330): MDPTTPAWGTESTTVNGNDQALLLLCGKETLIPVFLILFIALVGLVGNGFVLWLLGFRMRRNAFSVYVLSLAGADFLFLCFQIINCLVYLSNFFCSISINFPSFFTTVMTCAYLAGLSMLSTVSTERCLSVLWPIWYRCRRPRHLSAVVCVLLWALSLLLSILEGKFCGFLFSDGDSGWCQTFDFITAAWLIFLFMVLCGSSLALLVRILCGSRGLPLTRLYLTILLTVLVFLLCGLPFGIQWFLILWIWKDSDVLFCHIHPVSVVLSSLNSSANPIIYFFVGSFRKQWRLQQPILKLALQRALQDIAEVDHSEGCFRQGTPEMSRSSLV
Procedure: The granule-associated proteins CD107a and CD63 externalize in the process of degranulation. Their quantification by flow cytometry is a reliable marker of mast cell activation, which is often used for the diagnosis of allergies and anaphylaxis in mast cell activation tests.[49],[50] Thus, the expression of CD107a and CD63 on the cell surface was determined to confirm the effects of PSB-172656 on SP-induced MRGPRX2-mediated degranulation. […] In addition to MRPGRX2, LAD2 cells also express a GPCR that is specifically activated by the complement component C3a.[51] Both receptors can activate Gαi/o proteins to promote MC activation.[48],[52]
MC degranulation was also measured by determining the cell surface expression of CD107a (Lysosomal-Associated Membrane Protein-1, LAMP-1) and CD63 (LAMP-3) after agonist stimulation.[48] LAD2 cells were preincubated with PSB-172656 or vehicle control for 5 min at 37 °C, then activated with SP (0.3 μM) and or C3a (3 nM) for 5 min at 37 °C. After 5 min of incubation, cells were fixed with 500 µL of 4% fixation buffer (Biolegend, Catalog 420801) for 15 min at room temperature. […] Cell surface expression of CD107a and CD63 was measured from the zombie-yellow negative population by a BD LSR II flow cytometer (San Jose, CA, USA) and analyzed by FlowJo software version 10.7.2 (Tree Star Inc., Ashland, OR, USA).[48],[50]

MRGPRX2 [2] = target: T1, MRGPRX2; experiment: TRUPATH Gαi1 dissociation assay, LN229 cells expressing MRGPRX2; format: cell-based; design: expressed in transfected cells; host or cells: LN229 human glioblastoma cells; plasmid pLXSN-MRGPRX2 (Addgene #213960); conditions: 100 nM, preincubation
Procedure: Fig. 3 Biological characterization of PSB-172656. a Selectivity of PSB-172656 (100 nM) for MRGPRX2 over MRGPRX1, MRGPRX3, and MRGPRX4 measured in β-arrestin assays utilizing β-arrestin-CHO cells with recombinant expression of the respective receptor. MRGPRX1 was activated by BAM-22P (8.5 µM),[19] MRGPRX2 was activated by CST-14 (1 µM), MRGPRX3 was activated by PSB-20294 (10 µM), MRGPRX4 was activated by PSB-18061 (2.6 µM).[44] Data represent mean values ± SEM of 3-4 biological replicates, performed in duplicates. […] Data are means ± SEM of 3 biological replicates, in duplicates. Statistical significance was determined by one-way ANOVA (Tukey’s multiple comparison) test (ns P > 0.05). […] Data are means ± SEM of 3 biological replicates, performed in duplicates. e Shift assay to determine inhibition type of PSB-172656 versus CST-14. […] Extrapolated data were not used for analysis but only shown for a comprehensive view. f Schild plot for the effect of PSB-172656 on the concentration-response curves for CST-14. […]
To further investigate PSB-172656 signaling, direct activation of the relevant G protein subunits, Gαq and Gαi1,[32] was studied. This was assessed using G protein dissociation assays and LN229 cells stably overexpressing MRGPRX2 while transiently expressing the investigated G protein (Fig. 3c, d).[47]

CCc1c(C(C)C)[nH]c2nc3cc(F)c(F)cc3n2c1=O [Compound 24, 3-ethyl-7,8-difluoro-2-isopropylbenzo[4,5]imidazo [1,2-a] pyrimidin-4(1H)-one]
toxicity in LAD2 cells (MTT) (LAD2 cells): did not exhibit toxicity
effect on SP-induced expression of CD107a and CD63 on the cell surface (MRGPRX2 [1]): completely prevented
inhibition of CST-14-induced Gαi1 dissociation (MRGPRX2 [2]): completely inhibited
